Test results taken from patent US9650339B2, “Inhibitors of histone demethylases” (Gilead Sciences, Inc., priority 2013, dated 2017).
pEC50: −log10 of the molar value.

Legend:
[1] = test system: AMO1; experiment: Cell proliferation assay AMO1; type: cell-based; conditions: Homo sapiens; AMO1, Plasmacytoma; method of Example 5
Description: (§1) MCF7 cells were seeded in multi well plates at a density optimized to give approximately 90% confluent cells at the time of harvest. Cells were incubated for 24 hours before addition of compound. Compounds were diluted in complete medium and added to the plates in duplicates. The final concentration of DMSO was maximum 0.5%. Complete medium used was DMEM with GlutaMAX containing 10% FBS and pen/strep.
(§2) 120 hours after addition of compounds, the plates were harvested and analyzed by ATPlite 1 Step (Perkin Elmer, cat no 6016739) according to the manufactures recommendation.
(§3) The assays were performed by the method of Example 5 by seeding the relevant cell line at a density optimized to give approximately 90% confluent cells at the time of harvest.

[2] = test system: ARPE19; experiment: Cell proliferation assay ARPE19; type: cell-based; conditions: Homo sapiens, ARPE-19; ARPE19, Retinal pigmented epithelium; method of Example 5
Description: as §1, §2, §3

[3] = test system: EJM; experiment: Cell proliferation assay EJM; type: cell-based; conditions: Homo sapiens, Myeloma, method of Example 5
Description: as §1, §2, §3

[4] = test system: HEPG2; experiment: Cell proliferation assay HEPG2; type: cell-based; conditions: Homo sapiens; HEPG2, Hepatocellular carcinoma; method of Example 5
Description: as §1, §2, §3

[5] = test system: KMS 12 BM; experiment: Cell proliferation assay KMS 12 BM; type: cell-based; conditions: Homo sapiens, Myeloma, method of Example 5
Description: as §1, §2, §3

[6] = test system: L1236; experiment: Cell proliferation assay L1236; type: cell-based; conditions: Homo sapiens, L-1236; L1236, Hodgkin's lymphoma; method of Example 5
Description: as §1, §2, §3

[7] = test system: L363; experiment: Cell proliferation assay L363; type: cell-based; conditions: Homo sapiens, L-363; L363, Plasma cell leukemia; method of Example 5
Description: as §1, §2, §3

[8] = test system: MDA MB 231; experiment: Cell proliferation assay MDA MB 231; type: cell-based; conditions: Homo sapiens; MDA MB 231, Breast carcinoma; method of Example 5
Description: as §1, §2, §3

[9] = test system: MOLP2; experiment: Cell proliferation assay MOLP2; type: cell-based; conditions: Homo sapiens, MOLP-2; MOLP2, Myeloma; method of Example 5
Description: as §1, §2, §3

[10] = test system: NCIH929; experiment: Cell proliferation assay NCIH929; type: cell-based; conditions: Homo sapiens, NCI-H929; NCIH929, Myeloma; method of Example 5
Description: as §1, §2, §3

[11] = test system: OPM2; experiment: Cell proliferation assay OPM2; type: cell-based; conditions: Homo sapiens, OPM-2; OPM2, Myeloma; method of Example 5
Description: as §1, §2, §3

[12] = test system: OVCAR-3; experiment: Cell proliferation assay OVCAR-3; type: cell-based; conditions: Homo sapiens; OVCAR-3, Ovary; method of Example 5
Description: as §1, §2, §3

[13] = test system: RAJI; experiment: Cell proliferation assay RAJI; type: cell-based; conditions: Homo sapiens, Burkitt's lymphoma, method of Example 5
Description: as §1, §2, §3

[14] = test system: BT474; experiment: Cell proliferation assay BT474; type: cell-based; conditions: Homo sapiens, BT-474; BT474, Mammary ductal carcinoma; method of Example 5
Description: as §1, §2, §3

[15] = test system: KARPAS620; experiment: Cell proliferation assay KARPAS620; type: cell-based; conditions: Homo sapiens, Karpas-620; KARPAS620, Plasma cell leukemia; method of Example 5
Description: as §1, §2, §3

[16] = test system: MIA PACA2; experiment: Cell proliferation assay MIA PACA2; type: cell-based; conditions: Homo sapiens, MIA PaCa-2; MIA PACA2, Pancreas epithelial carcinoma; method of Example 5
Description: as §1, §2, §3

[17] = test system: NALM6; experiment: Cell proliferation assay NALM6; type: cell-based; conditions: Homo sapiens, NALM-6; NALM6, Lymphoblastic leukemia; method of Example 5
Description: as §1, §2, §3

[18] = test system: RPMI8226; experiment: Cell proliferation assay RPMI8226; type: cell-based; conditions: Homo sapiens, RPMI-8226; RPMI8226, Myeloma; method of Example 5
Description: as §1, §2, §3

[19] = test system: U2OS; experiment: Cell proliferation assay U2OS; type: cell-based; conditions: Homo sapiens, Osteosarcoma, method of Example 5
Description: as §1, §2, §3

[20] = test system: JJN3; experiment: Cell proliferation assay JJN3; type: cell-based; conditions: Homo sapiens, JJN-3; JJN3, Plasma cell leukemia; method of Example 5
Description: as §1, §2, §3

[21] = test system: LP1; experiment: Cell proliferation assay LP1; type: cell-based; conditions: Homo sapiens, LP-1; LP1, Myeloma; method of Example 5
Description: as §1, §2, §3

[22] = test system: UH01; experiment: Cell proliferation assay UH01; type: cell-based; conditions: Homo sapiens; UH01, Hodgkin's lymphoma; method of Example 5
Description: as §1, §2, §3

[23] = test system: OPM-2 subcutaneous mouse xenograft model of multiple myeloma; experiment: Inhibition of tumor growth in mouse xenograft model; type: in vivo, NOD/SCID mice (Mus Musculus)
Text: Briefly, NOD/SCID mice γ-irradiated with ^60Co (200 rad) (12 animals/group) were inoculated subcutaneously with 8×10^6 OPM-2 cells assisted with Matrigel. Dosing according to the table below started when tumors reached an average size of ˜100 mm^3 (day 15). Dosing continued until the average size of tumors in the vehicle group reached ˜2000 mm^3 (day 31).
Animals were 7 weeks old female NOD/SCID mice (Mus Musculus), supplied by Beijing HFK Bio-Technology Co. Ltd. (Beijing, china). Body weight was approx. 16-23 g. Before commencement of treatment, all animals were weighed and tumor volumes were measured, and mice were assigned into groups using randomized block design based upon their tumor volumes.
OPM-2 tumor cells were maintained in vitro in RPMI1640 medium supplemented with 20% fetal bovine serum at 37° C. in an atmosphere of 5% CO2 in air. The tumor cells were routinely subcultured twice weekly. The cells growing in an exponential growth phase were harvested and counted for tumor inoculation.
Tumor sizes were measured three times weekly in two dimensions using a caliper, and the volume was expressed in mm^3 using the formula: V=0.5 a×b^2 where a and b were the long and short diameters of the tumor, respectively.

[24] = test system: MM1R; experiment: Cell proliferation assay MM1R; type: cell-based; conditions: Homo sapiens, MM.1R, Myeloma, method of Example 5
Description: as §1, §2, §3

CCN(CCN(C)C)C(=O)CNCc1cc(CNC(=O)C(F)(F)F)ccn1 [Compound 25, N-[(2-{[({[2-(dimethylamino)ethyl]-(ethyl)carbamoyl}-methyl)amino]methyl}-pyrtdin-4-yl)methyl]-2,2,2-trifluoroacetamide]
pEC50 [1]: > 6.60
pEC50 [2]: < 5.60
pEC50 [3]: < 5.60
pEC50 [4]: < 5.60
pEC50 [5]: > 6.60
pEC50 [6]: < 5.60
pEC50 [7]: < 5.60
pEC50 [8]: < 5.60
pEC50 [9]: 5.60 to 6.60
pEC50 [10]: 5.60 to 6.60
pEC50 [11]: 5.60 to 6.60
pEC50 [12]: < 5.60
pEC50 [13]: < 5.60

C(=N/C1CC1)/c1ccnc(CNCCCN2CCCC2)c1 [Compound 42, N-{[2-({[3-(pyrrolidin-1-yl)propyl]amino}-methyl)pyridin-4-yl]methylidene}-cyclopropanamine]
pEC50 [2]: < 5.60
pEC50 [14]: 5.60 to 6.60
pEC50 [4]: < 5.60
pEC50 [15]: < 5.60
pEC50 [6]: < 5.60
pEC50 [8]: < 5.60
pEC50 [16]: < 5.60
pEC50 [17]: > 6.60
pEC50 [11]: < 5.60
pEC50 [13]: < 5.60
pEC50 [18]: < 5.60
pEC50 [19]: < 5.60

CCN(CC)CCCCNCc1cc(/C=N/CCO)ccn1 [Compound 61, 2-[{[2-({[4-(diethylamino)-butyl]amino}-methyl)pyridin-4-yl]methylidene}-amino]ethan-1-ol]
pEC50 [2]: < 5.60
pEC50 [14]: > 6.60
pEC50 [3]: < 5.60
pEC50 [4]: < 5.60
pEC50 [20]: < 5.60
pEC50 [15]: > 6.60
pEC50 [7]: < 5.60
pEC50 [21]: < 5.60
pEC50 [16]: < 5.60
pEC50 [10]: < 5.60
pEC50 [13]: < 5.60
pEC50 [18]: < 5.60
pEC50 [22]: < 5.60
Tumor Volume ([23]; BID × 14 i.p. 1 mg/kg, day 15 after inoculation (start of dosing)): 101 ± 12 mm^3
Tumor Volume ([23]; BID × 14 i.p. 1 mg/kg, day 17 after inoculation): 249 ± 32 mm^3
Tumor Volume ([23]; BID × 14 i.p. 1 mg/kg, day 19 after inoculation): 320 ± 45 mm^3
Tumor Volume ([23]; BID × 14 i.p. 1 mg/kg, day 21 after inoculation): 577 ± 85 mm^3
Tumor Volume ([23]; BID × 14 i.p. 1 mg/kg, day 24 after inoculation): 951 ± 124 mm^3
Tumor Volume ([23]; BID × 14 i.p. 1 mg/kg, day 26 after inoculation): 1259 ± 169 mm^3
Tumor Volume ([23]; BID × 14 i.p. 1 mg/kg, day 28 after inoculation): 1800 ± 202 mm^3
Tumor Volume ([23]; BID × 14 i.p. 1 mg/kg, day 31 after inoculation): 2864 ± 334 mm^3
Tumor Volume ([23]; BID × 14 i.p. 10 mg/kg, day 15 after inoculation (start of dosing)): 101 ± 11 mm^3
Tumor Volume ([23]; BID × 14 i.p. 10 mg/kg, day 17 after inoculation): 198 ± 28 mm^3
Tumor Volume ([23]; BID × 14 i.p. 10 mg/kg, day 19 after inoculation): 276 ± 44 mm^3
Tumor Volume ([23]; BID × 14 i.p. 10 mg/kg, day 21 after inoculation): 519 ± 67 mm^3
Tumor Volume ([23]; BID × 14 i.p. 10 mg/kg, day 24 after inoculation): 694 ± 92 mm^3
Tumor Volume ([23]; BID × 14 i.p. 10 mg/kg, day 26 after inoculation): 928 ± 136 mm^3
Tumor Volume ([23]; BID × 14 i.p. 10 mg/kg, day 28 after inoculation): 1289 ± 178 mm^3
Tumor Volume ([23]; BID × 14 i.p. 10 mg/kg, day 31 after inoculation): 1996 ± 302 mm^3
Tumor Volume ([23]; BID × 14 i.p. 20 mg/kg, day 15 after inoculation (start of dosing)): 101 ± 12 mm^3
Tumor Volume ([23]; BID × 14 i.p. 20 mg/kg, day 17 after inoculation): 188 ± 25 mm^3
Tumor Volume ([23]; BID × 14 i.p. 20 mg/kg, day 19 after inoculation): 292 ± 50 mm^3
Tumor Volume ([23]; BID × 14 i.p. 20 mg/kg, day 21 after inoculation): 440 ± 77 mm^3
Tumor Volume ([23]; BID × 14 i.p. 20 mg/kg, day 24 after inoculation): 766 ± 143 mm^3
Tumor Volume ([23]; BID × 14 i.p. 20 mg/kg, day 26 after inoculation): 1029 ± 196 mm^3
Tumor Volume ([23]; BID × 14 i.p. 20 mg/kg, day 28 after inoculation): 1298 ± 236 mm^3
Tumor Volume ([23]; BID × 14 i.p. 20 mg/kg, day 31 after inoculation): 1573 ± 261 mm^3

CCN(CCN(C)C)C(=O)CNCc1cc(C2OCC(Cc3ccccc3)CN2C(=O)C(F)(F)F)ccn1 (stereo not shown) [Compound 90, 2-[({4-[5-benzyl-3-(trifluoroacetyl)-1,3-oxazinan-2-yl]pyridin-2-yl}methyl)amino]-N-[2-(dimethylamino)-ethyl]-N-ethylacetamide]
pEC50 [4]: < 5.60
pEC50 [15]: > 6.60
pEC50 [24]: > 6.60
pEC50 [13]: < 5.60
pEC50 [18]: 5.60 to 6.60

CCN(CC)CCCCNCc1cc(C=O)ccn1 [Compound 107, 2-({[4-(diethylamino)-butyl]amino}-methyl)pyridine-4-carbaldehyde]
pEC50 [2]: < 5.60
pEC50 [14]: > 6.60
pEC50 [8]: < 5.60
pEC50 [16]: < 5.60
pEC50 [9]: < 5.60
pEC50 [17]: > 6.60
pEC50 [11]: 5.60 to 6.60
pEC50 [18]: < 5.60
pEC50 [19]: < 5.60
